Experimental data: ChEMBL document CHEMBL1146173, “New pyrimido[5,4-b]indoles and [1]benzothieno[3,2-d]pyrimidines: high affinity ligands for the alpha(1)-adrenoceptor subtypes” (Bioorg Med Chem Lett, 2006)

How the values were obtained:
[1] = molecular target: T1, Alpha-1A adrenergic receptor (Homo sapiens, UniProt P35348); test: Displacement of [125I]BE2254 from human cloned adrenergic alpha 1A receptor expressed in HEK293 cells; type: cell-based
T1 sequence (P35348 whole entry): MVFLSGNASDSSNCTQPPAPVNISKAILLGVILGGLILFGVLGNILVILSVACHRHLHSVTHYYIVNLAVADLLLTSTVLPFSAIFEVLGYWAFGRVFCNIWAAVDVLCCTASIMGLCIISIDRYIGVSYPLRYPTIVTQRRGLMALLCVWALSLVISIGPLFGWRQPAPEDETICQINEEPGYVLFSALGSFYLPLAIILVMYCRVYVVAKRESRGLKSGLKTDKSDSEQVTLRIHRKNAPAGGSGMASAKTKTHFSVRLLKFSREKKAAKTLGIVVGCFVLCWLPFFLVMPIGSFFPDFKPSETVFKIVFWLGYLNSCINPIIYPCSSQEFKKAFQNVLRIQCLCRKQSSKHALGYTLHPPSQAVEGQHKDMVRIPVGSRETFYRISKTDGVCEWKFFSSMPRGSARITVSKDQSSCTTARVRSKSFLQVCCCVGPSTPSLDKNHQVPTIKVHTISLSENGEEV

[2] = molecular target: T2, Alpha-1B adrenergic receptor (Homo sapiens, UniProt P35368); test: Displacement of [125I]BE2254 from human cloned adrenergic alpha 1B receptor expressed in HEK293 cells; type: cell-based
T2 sequence (P35368 whole entry): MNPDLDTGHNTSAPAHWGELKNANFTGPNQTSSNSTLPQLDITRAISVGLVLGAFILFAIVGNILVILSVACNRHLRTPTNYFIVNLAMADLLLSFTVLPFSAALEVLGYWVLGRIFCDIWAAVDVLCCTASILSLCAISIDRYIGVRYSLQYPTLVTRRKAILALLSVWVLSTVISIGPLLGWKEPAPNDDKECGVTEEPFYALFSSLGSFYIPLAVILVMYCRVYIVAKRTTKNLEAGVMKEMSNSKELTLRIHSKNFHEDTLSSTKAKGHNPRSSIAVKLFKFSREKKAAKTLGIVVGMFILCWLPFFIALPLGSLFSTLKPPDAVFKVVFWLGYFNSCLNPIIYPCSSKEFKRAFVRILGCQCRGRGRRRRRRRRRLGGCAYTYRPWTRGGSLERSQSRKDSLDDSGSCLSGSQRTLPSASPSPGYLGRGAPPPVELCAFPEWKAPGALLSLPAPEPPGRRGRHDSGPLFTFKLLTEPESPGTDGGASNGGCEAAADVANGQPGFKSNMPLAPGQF

[3] = molecular target: T3, Alpha-1D adrenergic receptor (Homo sapiens, UniProt P25100); test: Displacement of [125I]BE2254 from human cloned adrenergic alpha 1D receptor expressed in HEK293 cells; type: cell-based; conditions: for Log Ki: hek293
T3 sequence (P25100 whole entry): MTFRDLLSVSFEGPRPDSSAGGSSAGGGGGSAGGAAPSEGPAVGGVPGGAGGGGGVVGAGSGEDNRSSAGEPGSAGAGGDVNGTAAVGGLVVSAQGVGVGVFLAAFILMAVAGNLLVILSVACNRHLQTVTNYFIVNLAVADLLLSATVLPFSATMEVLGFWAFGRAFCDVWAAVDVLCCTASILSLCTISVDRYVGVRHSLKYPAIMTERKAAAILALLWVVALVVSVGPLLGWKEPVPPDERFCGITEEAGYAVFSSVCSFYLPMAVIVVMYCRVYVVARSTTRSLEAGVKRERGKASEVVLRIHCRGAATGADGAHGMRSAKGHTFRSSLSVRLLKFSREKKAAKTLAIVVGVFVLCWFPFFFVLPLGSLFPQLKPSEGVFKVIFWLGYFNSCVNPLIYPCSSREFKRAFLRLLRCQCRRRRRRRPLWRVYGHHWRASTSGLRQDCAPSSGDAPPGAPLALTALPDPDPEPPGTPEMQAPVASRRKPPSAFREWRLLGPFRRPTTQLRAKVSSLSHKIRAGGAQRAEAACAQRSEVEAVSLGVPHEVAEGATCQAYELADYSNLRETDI

[4] = molecular target: T4, Alpha-1A adrenergic receptor (Rattus norvegicus) (UniProt P43140); test: Antagonist activity at adrenergic alpha 1A receptor in rat prostatic vas deferens; type: functional, tissue-based
T4 sequence (whole entry): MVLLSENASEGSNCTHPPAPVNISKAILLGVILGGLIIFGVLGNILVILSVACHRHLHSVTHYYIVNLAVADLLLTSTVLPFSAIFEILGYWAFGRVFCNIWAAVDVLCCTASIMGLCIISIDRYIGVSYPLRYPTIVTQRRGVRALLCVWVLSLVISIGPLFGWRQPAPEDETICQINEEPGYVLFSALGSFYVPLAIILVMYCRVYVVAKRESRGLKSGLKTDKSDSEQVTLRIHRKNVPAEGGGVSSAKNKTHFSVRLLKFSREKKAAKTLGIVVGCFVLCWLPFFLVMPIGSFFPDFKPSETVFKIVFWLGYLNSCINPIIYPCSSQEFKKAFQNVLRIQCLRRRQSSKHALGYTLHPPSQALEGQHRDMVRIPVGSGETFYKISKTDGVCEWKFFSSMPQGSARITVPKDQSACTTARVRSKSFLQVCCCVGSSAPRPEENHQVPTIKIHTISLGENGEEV

[5] = molecular target: T5, Alpha-1B adrenergic receptor (Rattus norvegicus) (UniProt P15823); test: Antagonist activity at adrenergic alpha 1B receptor in rat spleen; type: functional, tissue-based
T5 sequence (whole entry): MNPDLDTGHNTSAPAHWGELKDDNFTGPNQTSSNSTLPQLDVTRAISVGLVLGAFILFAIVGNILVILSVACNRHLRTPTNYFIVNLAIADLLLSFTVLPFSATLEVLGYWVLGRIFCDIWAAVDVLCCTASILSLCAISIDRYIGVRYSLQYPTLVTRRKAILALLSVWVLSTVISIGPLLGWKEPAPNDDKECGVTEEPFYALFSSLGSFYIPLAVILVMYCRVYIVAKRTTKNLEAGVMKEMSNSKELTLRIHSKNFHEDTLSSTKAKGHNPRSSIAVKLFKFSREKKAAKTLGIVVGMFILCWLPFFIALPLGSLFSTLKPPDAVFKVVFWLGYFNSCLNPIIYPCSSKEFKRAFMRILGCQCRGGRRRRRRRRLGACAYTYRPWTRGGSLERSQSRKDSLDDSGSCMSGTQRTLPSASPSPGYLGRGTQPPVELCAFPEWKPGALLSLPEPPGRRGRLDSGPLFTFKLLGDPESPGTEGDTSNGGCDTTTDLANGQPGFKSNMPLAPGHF

[6] = molecular target: T6, Alpha-1D adrenergic receptor (Rattus norvegicus) (UniProt P23944); test: Antagonist activity at adrenergic alpha 1D receptor in rat thoracic aorta; type: functional, tissue-based
T6 sequence (whole entry): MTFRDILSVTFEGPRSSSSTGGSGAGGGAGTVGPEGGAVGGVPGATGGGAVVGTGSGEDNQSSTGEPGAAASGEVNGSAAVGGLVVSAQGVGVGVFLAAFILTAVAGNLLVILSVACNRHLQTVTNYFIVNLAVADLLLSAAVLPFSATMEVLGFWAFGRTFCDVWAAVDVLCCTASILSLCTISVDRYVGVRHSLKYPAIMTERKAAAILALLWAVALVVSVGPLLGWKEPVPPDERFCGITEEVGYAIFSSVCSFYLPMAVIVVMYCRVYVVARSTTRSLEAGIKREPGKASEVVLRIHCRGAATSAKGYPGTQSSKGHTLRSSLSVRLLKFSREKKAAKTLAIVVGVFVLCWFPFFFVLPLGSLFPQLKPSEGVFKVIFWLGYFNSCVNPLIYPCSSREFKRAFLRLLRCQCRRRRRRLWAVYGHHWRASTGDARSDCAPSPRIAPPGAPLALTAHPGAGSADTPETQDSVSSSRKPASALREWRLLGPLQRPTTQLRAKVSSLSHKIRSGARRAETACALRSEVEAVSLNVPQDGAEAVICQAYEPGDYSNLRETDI

Row | Structure (SMILES) | Ki [1] | Ki [2] | Ki [3] | pKb [4] | pKb [5] | pKb [6] | Log Ki ([1]; hek293) | Log Ki [3]
1 | COc1ccc(Cl)cc1N1CCN(CCn2c(=O)[nH]c3c([nH]c4ccccc43)c2=O)CC1 | 8.32 nM | 10.7 nM | 1.55 nM |  |  |  |  | 
2 | COc1ccccc1N1CCN(CCn2c(=O)[nH]c3c(sc4ccccc43)c2=O)CC1 | 3.31 nM | 8.91 nM | 1.26 nM | 8.61 | 8.44 | 8.89 |  | 
3 | O=c1[nH]c2c(sc3ccccc32)c(=O)n1CCN1CCN(c2ccc(Cl)c(Cl)c2)CC1 | 4270 nM | 19100 nM | 309 nM |  |  |  |  | 
4 | COc1ccccc1N1CCN(CCn2c(C)nc3c(sc4ccccc43)c2=O)CC1 | 1.48 nM | 17.4 nM | 0.398 nM | 8.65 | 7.63 | 8.98 |  | 
5 | Cc1nc2c([nH]c3ccccc32)c(=O)n1CCN1CCN(c2ccc(Cl)c(Cl)c2)CC1 | 30.2 nM | 83.2 nM | 7.41 nM |  |  |  |  | 
6 | COc1ccc(Cl)cc1N1CCN(CCn2c(=O)[nH]c3c(sc4ccccc43)c2=O)CC1 | 53.7 nM | 91.2 nM | 13.5 nM |  |  |  |  | 
7 | COc1ccccc1N1CCN(CCn2c(C)nc3c4ccccc4nc-3c2O)CC1 |  |  |  | 8.53 | 9.73 | 9.24 | -8.52 | -9.39
8 | COc1ccc(Cl)cc1N1CCN(CCn2c(C)nc3c(sc4ccccc43)c2=O)CC1 | 3.47 nM | 17.4 nM | 0.832 nM | 7.52 | 8.91 | 7.57 |  | 
9 | COc1ccc(Cl)cc1N1CCN(CCn2c(C)nc3c([nH]c4ccccc43)c2=O)CC1 | 1.32 nM | 4.47 nM | 0.166 nM | 7.6 | 8.68 | 8.39 |  | 
10 | Cn1c(=O)n(CCN2CCN(c3ccc(Cl)c(Cl)c3)CC2)c(=O)c2c1c1ccccc1n2C | 182 nM | 603 nM | 437 nM |  |  |  |  | 
11 | COc1ccccc1N1CCN(CCn2c(=O)[nH]c3c([nH]c4ccccc43)c2=O)CC1 | 0.288 nM |  |  | 8.46 | 8.67 | 8.71 |  | -9.44
